Source: article PMC4732562 (2015)

System: 3',3'-cGAMP riboswitch (Gs1761 aptamer, A2G/U72C/C73U) (RNA, riboswitch) GGUACACGACAAUACUAAACCAUCCGCGAGGAUGGGGCGGAAAGCCUAAGGGUCUCCCUGAGACAGCCGGGCUGCCGAAAUAUC
Test: ITC
Conditions: 35 °C; one set of sites; buffer in supplement

SMILES | Kd [nM]
Nc1nc2c(ncn2[C@@H]2O[C@@H]3COP(=O)(O)O[C@H]4[C@@H](O)[C@H](n5cnc6c(=O)[nH]c(N)nc65)O[C@@H]4COP(=O)(O)O[C@H]3[C@H]2O)c(=O)[nH]1 | 930
Nc1nc2c(ncn2[C@@H]2O[C@@H]3COP(=O)(O)O[C@H]4[C@@H](O)[C@H](n5cnc6c(N)ncnc65)O[C@@H]4COP(=O)(O)O[C@H]3[C@H]2O)c(=O)[nH]1 | 70
